In assay [1] the test system is LTB4 production in murine blood (LTA4H). The experiment in a line: LTB4 production by calcium ionophore-stimulated murine blood for LTA4H inhibitor activity. To be noted: Mus musculus; murine blood diluted 1 in 15, A23187 stimulated; single determination or average; mark after value = form tested: ′ free base, ″ hydrochloride, ^ formate; read-out: IC50. It is filed as cell-based, CD-1 mice. Put shortly: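 LTB4 was measured by ELISA in supernatants after calcium ionophore A23187 stimulation (final 7 μg/mL, 30 min, 37° C) of CD-1 mouse blood collected on heparin. Compound was preincubated with the blood for 15 min beforehand. Values come from one determination or average several.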

For assay [2], the target named is T1, recombinant human LTA4 hydrolase (rhLTA4H) (Homo sapiens, UniProt P09960).
T1 construct: made in house; host or cells: Spodoptera frugiperda (Sf-9) cells, baculovirus (pFastBac1)
T1 sequence (P09960 1-611): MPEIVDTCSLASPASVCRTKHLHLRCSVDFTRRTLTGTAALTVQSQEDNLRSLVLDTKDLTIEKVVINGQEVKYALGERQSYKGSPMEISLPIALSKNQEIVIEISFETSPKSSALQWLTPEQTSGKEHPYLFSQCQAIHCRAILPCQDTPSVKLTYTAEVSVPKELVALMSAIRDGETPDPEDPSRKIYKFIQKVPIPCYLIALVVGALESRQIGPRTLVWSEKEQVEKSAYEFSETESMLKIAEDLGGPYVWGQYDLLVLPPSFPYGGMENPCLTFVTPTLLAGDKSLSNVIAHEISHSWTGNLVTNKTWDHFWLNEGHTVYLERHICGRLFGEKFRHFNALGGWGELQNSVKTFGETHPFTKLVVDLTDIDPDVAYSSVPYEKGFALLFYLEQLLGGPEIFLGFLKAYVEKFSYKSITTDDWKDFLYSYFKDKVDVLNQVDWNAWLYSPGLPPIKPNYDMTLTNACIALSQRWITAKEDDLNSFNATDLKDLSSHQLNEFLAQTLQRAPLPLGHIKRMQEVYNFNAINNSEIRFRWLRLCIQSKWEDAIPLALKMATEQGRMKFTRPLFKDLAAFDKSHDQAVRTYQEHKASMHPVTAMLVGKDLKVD
The assay can be described thus: Recombinant human LTA4 hydrolase assay for LTA4 hydrolase inhibitor activity. It is filed as biochemical. To be noted: rhLTA4H, LTB4 by immunoassay; single determination or average of two or more; mark after value = form tested: ′ free base, ″ hydrochloride, ^ formate; read-out: IC50. In short, it runs like this: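 LTB4 formation, measured by enzyme immunoassay, was the read-out. The enzyme, recombinant human LTA4H expressed in Sf-9 insect cells (10 ng per reaction), was exposed to compound for 10 min at room temperature before hydrolysed-ester LTA4 substrate was added for 30 min. Enzyme-free negatives were included.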

Where a name gives a salt, the structure may show the parent alone.

In the case of `CC(=O)N1CC2CC(CN(Cc3coc4cc(Oc5nc6ncccc6s5)ccc34)C2)C1` [Example 352, 1-{7-[6-(Thiazolo[4,5-b]pyridin-2-yloxy)-benzofuran-3-ylmethyl]-3,7-diaza-bicyclo[3.3.1]non-3-yl}-ethanone], the half-maximal inhibitory concentration (IC50) in assay [1] was 110 nM; in assay [2] it was 50 nM.
`O=C1Cc2ccccc2N1Cc1coc2cc(Oc3nc4ncccc4s3)ccc12` [Example 399, 1-[6-(Thiazolo[4,5-b]pyridin-2-yloxy)-benzofuran-3-ylmethyl]-1,3-dihydro-indol-2-one]: the IC50 in assay [1] amounted to 300 nM; in assay [2], 13 nM.
For `FC1CCN(Cc2coc3cc(Oc4nc5ncccc5s4)ccc23)CC1` [Example 270, 2-[3-(4-Fluoro-piperidin-1-ylmethyl)-benzofuran-6-yloxy]-thiazolo[4,5-b]pyridine formate], the half-inhibitory concentration (IC50) in assay [1] came out at 100 nM; in assay [2] it was 26 nM.
`c1ccc2sc(Oc3ccc4c(CN5C[C@@H]6C[C@H]5CO6)c[nH]c4c3)nc2c1` [Example 12, (1S,4S)-2-[3-(2-Oxa-5-aza-bicyclo[2.2.1]hept-5-ylmethyl)-1H-indol-6-yloxy]-benzothiazole]: the figures for the IC50 in assay [1] and in assay [2] were 250 nM and 13 nM, respectively.
`O=C1CCCCN1C1CCN(Cc2coc3cc(Oc4nc5ncccc5s4)ccc23)CC1` [Example 272, 1′-[6-(Thiazolo[4,5-b]pyridin-2-yloxy)-benzofuran-3-ylmethyl]-[1,4′]bipiperidinyl-2-one formate]: the IC50 worked out at 15 nM in assay [1] and 5 nM in assay [2].
Regarding `c1cnc2nc(Oc3ccc4c(CN5CCOCC5)c[nH]c4c3)sc2c1` [Example 40, 2-(3-Morpholin-4-ylmethyl-1H-indol-6-yloxy)-thiazolo[4,5-b]pyridine], the concentration for half-maximal inhibition (IC50) was determined as 23 nM in assay [1] and 2 nM in assay [2].
Take `c1ccc(CCNCc2coc3cc(Oc4nc5ncccc5s4)ccc23)cc1` [Example 321, Phenethyl-[6-(thiazolo[4,5-b]pyridin-2-yloxy)-benzofuran-3-ylmethyl]-amine formate]: the IC50 was 51 nM in assay [1] and 40 nM in assay [2].
For `c1cnc(OC2CCN(Cc3coc4cc(Oc5nc6ncccc6s5)ccc34)CC2)nc1` [Example 217, 2-{3-[4-(Pyrimidin-2-yloxy)-piperidin-1-ylmethyl]-benzofuran-6-yloxy}-thiazolo[4,5-b]pyridine] the same measures were 36 nM and 4 nM.
For `CC(C)(C)NCc1coc2cc(Oc3nc4ncccc4s3)ccc12` [Example 301, tert-Butyl-[6-(thiazolo[4,5-b]pyridin-2-yloxy)-benzofuran-3-ylmethyl]-amine formate] the same measures were 4 nM and 15 nM.
For `c1ccc2sc(Oc3ccc4cc(CN5CCCC5)[nH]c4c3)nc2c1` [Example 68, 2-(2-Pyrrolidin-1-ylmethyl-1H-indol-6-yloxy)-benzothiazole] the same measures were 450 nM and 20 nM.
On to `Clc1ccc2sc3c(c2c1)CCN(Cc1c[nH]c2cc(Oc4nc5ncccc5s4)ccc12)C3` [Example 37, 6-Chloro-2-[6-(thiazolo[4,5-b]pyridin-2-yloxy)-1H-indol-3-ylmethyl]-1,2,3,4-tetrahydro-benzo[4,5]thieno[2,3-c]pyridine formate], for which the IC50 is 310 nM in assay [1] and 8 nM in assay [2].
For the compound `CC(=O)N1C[C@H]2C[C@@H]1CN2Cc1cc2ncc(Oc3nc4ncccc4s3)cc2o1` [Example 340, (1R,4R)-1-{5-[6-(Thiazolo[4,5-b]pyridin-2-yloxy)-furo[3,2-b]pyridin-2-ylmethyl]-2,5-diaza-bicyclo[2.2.1]hept-2-yl}-ethanone formate], the values for the IC50 in assay [1] and in assay [2] were 610 nM and 12 nM, respectively.
For `c1cnc2nc(Oc3ccc4c(CNC5CC5)coc4c3)sc2c1` [Example 297, Cyclopropyl-[6-(thiazolo[4,5-b]pyridin-2-yloxy)-benzofuran-3-ylmethyl]-amine] the same measures were 240 nM and 19 nM.
With `OC1(c2ccccc2)CCN(Cc2coc3cc(Oc4nc5ncccc5s4)ccc23)CC1` [Example 275, 4-Phenyl-1-[6-(thiazolo[4,5-b]pyridin-2-yloxy)-benzofuran-3-ylmethyl]-piperidin-4-ol], the figures for the IC50 in assay [1] and in assay [2] were 34 nM and 2 nM, respectively.
Consider `CN(CCC(=O)O)Cc1coc2cc(Oc3nc4ncccc4s3)ccc12` [Example 335, 3-{Methyl-[6-(thiazolo[4,5-b]pyridin-2-yloxy)-benzofuran-3-ylmethyl]-amino}-propionic acid formate], for which the IC50 in assay [1] turned out to be 200 nM; in assay [2], 5 nM.
On to `COC(=O)CC1CCN(Cc2c[nH]c3cc(Oc4nc5ccccc5s4)ccc23)CC1` [Example 141, {1-[6-(Benzothiazol-2-yloxy)-1H-indol-3-ylmethyl]-piperidin-4-yl}-acetic acid methyl ester], for which the IC50 in assay [1] is 640 nM; in assay [2] it was 20 nM.
In the case of `CC(=O)N[C@H]1C[C@H]2CC[C@@H](C1)N2Cc1coc2cc(Oc3nc4ccccc4s3)ccc12` [Example 181, meso-endo-N-{8-[6-(Benzothiazol-2-yloxy)-benzofuran-3-ylmethyl]-8-aza-bicyclo[3.2.1]oct-3-yl}-acetamide], the IC50 was 33 nM in assay [1] and 3 nM in assay [2].
For `c1cnc2nc(Oc3ccc4c(CNC5CCCC5)coc4c3)sc2c1` [Example 298, Cyclopentyl-[6-(thiazolo[4,5-b]pyridin-2-yloxy)-benzofuran-3-ylmethyl]-amine] the same measures were 17 nM and 12 nM.
Turning to `CC(=O)N1CCN(Cc2cc3cc(Oc4nc5ncccc5s4)ccc3o2)CC1` [Example 259, 1-{4-[5-(Thiazolo[4,5-b]pyridin-2-yloxy)-benzofuran-2-ylmethyl]-piperazin-1-yl}ethanone formate], the IC50 in assay [1] came out at 74 nM; in assay [2] it was 5 nM.
As for `CC(=O)N[C@H]1C[C@H]2CC[C@@H](C1)N2Cc1cc2ccc(Oc3nc4ccccc4s3)cc2[nH]1` [Example 70, meso-endo-N-{8-[6-(Benzothiazol-2-yloxy)-1H-indol-2-ylmethyl]-8-aza-bicyclo[3.2.1]oct-3-yl}-acetamide], the IC50 turned out to be 76 nM in assay [1] and 1 nM in assay [2].
As to `COc1ccc(N2CCN(Cc3coc4cc(Oc5nc6ncccc6s5)ccc34)CC2)cc1` [Example 290, 2-{3-[4-(4-Methoxy-phenyl)-piperazin-1-ylmethyl]-benzofuran-6-yloxy}-thiazolo[4,5-b]pyridine formate], the values for the IC50 in assay [1] and in assay [2] were 170 nM and 40 nM, respectively.
With `CCN(CC)C1CCN(Cc2coc3cc(Oc4nc5ncccc5s4)ccc23)C1` (stereo not drawn) [Example 327, Diethyl-{1-[6-(thiazolo[4,5-b]pyridin-2-yloxy)-benzofuran-3-ylmethyl]-pyrrolidin-3-yl}-amine], the IC50 in assay [1] worked out at 130 nM; in assay [2], 29 nM.
For `CC(C)(C)C1CCN(Cc2coc3cc(Oc4nc5ncccc5s4)ccc23)CC1` [Example 302, 2-[3-(4-tert-Butyl-piperidin-1-ylmethyl)-benzofuran-6-yloxy]-thiazolo[4,5-b]pyridine formate], the IC50 turned out to be 78 nM in assay [1] and 20 nM in assay [2].
For `CC(=O)N1C[C@@H]2C[C@H]1CN2Cc1c[nH]c2cc(Oc3nc4ncccc4s3)ccc12` [Example 19, (1S,4S)-1-{5-[6-(Thiazolo[4,5-b]pyridin-2-yloxy)-1H-indol-3-ylmethyl]-2,5-diaza-bicyclo[2.2.1]hept-2-yl}-ethanone] the same measures were 104 nM and 2 nM.
Consider `CC1CC(C)CN(Cc2coc3cc(Oc4nc5ncccc5s4)ccc23)C1` (stereo not drawn) [Example 281, 2-[3-(3,5-Dimethyl-piperidin-1-ylmethyl)-benzofuran-6-yloxy]-thiazolo[4,5-b]pyridine formate], for which the IC50 is 77 nM in assay [1] and 28 nM in assay [2].
`c1cnc2nc(Oc3ccc4c(CN5CCCCC5)c[nH]c4c3)sc2c1` [Example 16, 2-(3-Piperidin-1-ylmethyl-1H-indol-6-yloxy)-thiazolo[4,5-b]pyridine]: the IC50 in assay [1] stood at 17 nM; in assay [2], 3 nM.
As for `NC(=O)N1CCC(N(Cc2coc3cc(Oc4nc5ncccc5s4)ccc23)C2CC2)CC1` [Example 242, 4-{Cyclopropyl-[6-(thiazolo[4,5-b]pyridin-2-yloxy)-benzofuran-3-ylmethyl]-amino}-piperidine-1-carboxylic acid amide], the IC50 in assay [1] came to 68 nM; in assay [2], 32 nM.

What is called IC50 is the midpoint of a concentration-inhibition curve.
